Tests used:
HEK293T = experiment: Trypan blue dye exclusion cell viability assay; format: cell-based, human; details: 1-20 μM, compared to most of the cancer cells
Method: The effect of SS28 on viability of CEM, Reh, Nalm6, SUDHL8, Molt4, A549, HeLa 293T, mouse embryonic fibroblast (MEF) and PBMC was determined by trypan blue dye exclusion assay as described previously. Briefly, cells (0.75 × 10^5 cells/ml) were treated with increasing concentrations of SS28 (1, 5, 10 and 20, μM) for 48 and 72 h. DMSO treated cells were used as the vehicle control. Cells were harvested and subjected to trypan blue assay. Data from a minimum of three independent experiments is presented as a histogram with error bars.

A549 cells = experiment: Cell cycle phase distribution by flow cytometry; format: cell-based, human; details: A549, 5 μM, 6 to 24 h
Method: Cell cycle analysis by flow cytometry was performed as previously described. Briefly, 75,000 cells/ml (A549) were seeded in 6 well plates and grown in serum free medium for 18 h. After synchronisation, the cells were treated with 5 μM of SS28 (6, 12, 18, 24 and 30 h) and cells were processed as described before. Similarly, CEM cells (75,000 cells/ml) were treated with SS28 (2 μM) and harvested (6, 12, 18, 24 and 30 h) and processed. Following fixation, cells were resuspended in PBS and stained with propidium iodide and evaluated in a flow cytometer (FACS Calibur, Becton Dickinson) using Cell Quest Pro software using excitation 488 nm laser and emission at 560/570 nm. A minimum of 10,000 cells were acquired per sample and histograms were analysed using WinMDI 2.8 software.

[1] = tested on: Tubulin polymerisation in CEM cells; experiment: Cell based microtubule assembly (Tubulin polymerisation) assay; parameters: species or system Human; details: CEM, 2, 5 and 10 μM, 24 h, pellet fraction α-Tubulin immunoblot
Method: Separation of insoluble polymerized Tubulin from soluble Tubulin dimers was performed as described. In brief, CEM cells (1 × 10^6) were treated with 2, 5 and 10 μM of SS28 for 24 h. Cells were harvested and washed with PBS before adding polymerization lysate buffer containing 20 mM Tris-HCl (pH 6.8), 1 mM MgCl2, 2 mM EGTA, […], 1 mM phenylmethylsulfonyl fluoride, 1 mM orthovanadate and 0.5% NP-40. After centrifugation of the lysates at 15,000 × g for 10 min at 4 °C, the pellets were resuspended in SDS-PAGE loading buffer and dissolved by heating at 95 °C for 10 min. α-Tubulin was then immunoblotted for the pellet fraction containing polymerized microtubules and supernatants containing depolymerised microtubules were equalised and resolved on 8% SDS PAGE.

CEM cells = experiment: Intracellular ROS production (H2DCFDA, flow cytometry); format: cell-based, Human; details: 5 to 60 min
Method: Intracellular ROS generation in cells was assessed using the oxidation-sensitive fluorescent probe 2,7-dichlorodihydro fluorescein diacetate (H2DCFDA) as previously described. CEM cells were treated with SS28 (5 μM) for 5, 10, 15, 30 and 60 min, harvested, washed and incubated with H2DCFDA (30 min at 37 °C) and then fluorescence intensity was analyzed by flow cytometry. H2O2 was used as the positive control.

COc1cc(/C=C/c2ccc(C)cc2)cc(OC)c1OC [SS28, (E)-1,2,3-trimethoxy-5-(4-methylstyryl)benzene]
cytotoxicity on normal cell line (HEK293T): limited cytotoxicity
cell cycle distribution (A549 cells): significant accumulation of cells at G2/M phase
concentration from which Tubulin polymerisation was inhibited [1]: ≥ 2 µM
intracellular ROS production (CEM cells): did not show generation of ROS

Reference: PMC5066224, “A Novel Resveratrol Based Tubulin Inhibitor Induces Mitotic Arrest and Activates Apoptosis in Cancer Cells” (Scientific Reports, 2016)
